Two compounds from ChEMBL document CHEMBL1121707, “Synthesis of 2'-deoxy-L-fucopyranosylcarminomycinone and -epsilon-pyrromycinone as well as 2'-deoxy-D-erythro-pentopyranosyldaunomycinone, -carminomycinone, and -epsilon-pyrromycinone” (1981) can be followed below.

Experiment [1] has as its system Bacillus subtilis. The experiment can be described thus: Tested for antibacterial effect against Bacillus subtilis-8 at dose 12.5 ug/mL. In kind it is functional.
Experiment [2] deals with Bacillus subtilis. Kind of experiment: Tested for antibacterial effect against Bacillus subtilis-8 at dose 25 ug/mL. It is filed as functional.
Experiment [3] deals with Bacillus subtilis. The experiment can be described thus: Tested for antibacterial effect against Bacillus subtilis-8 at dose 3.1 ug/mL. It is filed as functional.
For experiment [4], the system named is Bacillus subtilis. The experiment can be described thus: Tested for antibacterial effect against Bacillus subtilis-8 at dose 50 ug/mL. It is filed as functional.
The test system of experiment [5] is Bacillus subtilis. The experiment can be described thus: Tested for antibacterial effect against Bacillus subtilis-8 at dose 6.25 ug/mL. In kind it is functional.
The test system of experiment [6] is L1210. The experiment can be described thus: Average weight change after administration at 0.4 mg/kg intraperitoneally in mice on day 1 in experiment 1. It is filed as functional, Mus musculus. The settings on record: route intraperitoneal.
For experiment [7], the system named is L1210. Kind of experiment: Average weight change after administration at 0.8 mg/kg intraperitoneally in mice on day 1 in experiment 1. It is filed as functional, Mus musculus. Conditions: route intraperitoneal.
Experiment [8] deals with L1210. The experiment can be described thus: Average weight change after administration at 1.6 mg/kg intraperitoneally in mice on day 1 in experiment 2. In kind it is functional, Mus musculus. The settings on record: route intraperitoneal.
In experiment [9] the test system is L1210. Kind of experiment: Average weight change after administration at 12.8 mg/kg intraperitoneally in mice on day 1 in experiment 1. In kind it is functional, Mus musculus. The settings on record: route intraperitoneal.
For experiment [10], the system named is L1210. Kind of experiment: Average weight change after administration at 12.8 mg/kg intraperitoneally in mice on day 1 in experiment 2. In kind it is functional, Mus musculus. The settings on record: route intraperitoneal.
Experiment [11] deals with L1210. Kind of experiment: Average weight change after administration at 25.6 mg/kg intraperitoneally in mice on day 1 in experiment 2. It is filed as functional, Mus musculus. Conditions: route intraperitoneal.
Experiment [12] relates to L1210. The experiment can be described thus: Average weight change after administration at 3.2 mg/kg intraperitoneally in mice on day 1 in experiment 1. It is filed as functional, Mus musculus. The settings on record: route intraperitoneal.
Experiment [13] relates to L1210. Kind of experiment: Average weight change after administration at 3.2 mg/kg intraperitoneally in mice on day 1 in experiment 2. It is filed as functional, Mus musculus. Conditions: route intraperitoneal.
For experiment [14], the system named is L1210. The experiment can be described thus: Average weight change after administration at 51.2 mg/kg intraperitoneally in mice on day 1 in experiment 2. The settings on record: route intraperitoneal. It is filed as functional, Mus musculus.
Experiment [15] concerns L1210. The experiment can be described thus: Average weight change after administration at 6.4 mg/kg intraperitoneally in mice on day 1 in experiment 1. In kind it is functional, Mus musculus. Conditions: route intraperitoneal.
Experiment [16] deals with L1210. Kind of experiment: Average weight change after administration at 6.4 mg/kg intraperitoneally in mice on day 1 in experiment 2. In kind it is functional, Mus musculus. Conditions: route intraperitoneal.
Experiment [17] concerns L1210. Kind of experiment: Average weight change after administration from 1-9 days at 0.4 mg/kg intraperitoneally in BDF1 mice. Conditions: route intraperitoneal. In kind it is functional, Mus musculus.
Experiment [18] relates to L1210. The experiment can be described thus: Average weight change after administration from 1-9 days at 0.8 mg/kg intraperitoneally in BDF1 mice. It is filed as functional, Mus musculus. The settings on record: route intraperitoneal.
The subject of experiment [19] is L1210. The experiment can be described thus: Average weight change after administration from 1-9 days at 1.6 mg/kg intraperitoneally in BDF1 mice. It is filed as functional, Mus musculus. The settings on record: route intraperitoneal.
For experiment [20], the system named is L1210. Kind of experiment: Average weight change after administration from 1-9 days at 12.8 mg/kg intraperitoneally in BDF1 mice. In kind it is functional, Mus musculus. The settings on record: route intraperitoneal.
Experiment [21] has as its system L1210. Kind of experiment: Average weight change after administration from 1-9 days at 3.2 mg/kg intraperitoneally in BDF1 mice. In kind it is functional, Mus musculus. Conditions: route intraperitoneal.
Experiment [22] deals with L1210. The experiment can be described thus: Average weight change after administration from 1-9 days at 6.4 mg/kg intraperitoneally in BDF1 mice. It is filed as functional, Mus musculus. The settings on record: route intraperitoneal.
Experiment [23] deals with L1210. Kind of experiment: Average weight change after administration at 1.6 mg/kg intraperitoneally in mice on day 1 in experiment 1. In kind it is functional, Mus musculus. The settings on record: route intraperitoneal.
Experiment [24] deals with L1210. Kind of experiment: Median survival time of treated to that of control after administration at 0.4 mg/kg intraperitoneally in BDF1 mice on day 1. In kind it is functional, Mus musculus. Conditions: route intraperitoneal.
The subject of experiment [25] is L1210. Kind of experiment: Median survival time of treated to that of control after administration at 0.8 mg/kg intraperitoneally in BDF1 mice on day 1. In kind it is functional, Mus musculus. The settings on record: route intraperitoneal.
For experiment [26], the system named is L1210. The experiment can be described thus: Median survival time of treated to that of control after administration at 1.6 mg/kg intraperitoneally in BDF1 mice on day 1. Conditions: route intraperitoneal. In kind it is functional, Mus musculus.
Experiment [27] concerns L1210. The experiment can be described thus: Tested for survivors on day 5 after administration at 6.4 mg/kg intraperitoneally in mice on day 1. In kind it is functional, Mus musculus. The settings on record: route intraperitoneal.
Experiment [28] relates to L1210. Kind of experiment: Median survival time of treated to that of control after administration at 12.8 mg/kg intraperitoneally in BDF1 mice on day 1. It is filed as functional, Mus musculus. Conditions: route intraperitoneal.
The subject of experiment [29] is L1210. The experiment can be described thus: Median survival time of treated to that of control after administration at 3.2 mg/kg intraperitoneally in BDF1 mice on day 1. In kind it is functional, Mus musculus. Conditions: route intraperitoneal.
For experiment [30], the system named is L1210. The experiment can be described thus: Average weight change after administration at 0.4 mg/kg intraperitoneally in mice on day 1. In kind it is functional, Mus musculus. The settings on record: route intraperitoneal.
Experiment [31] relates to L1210. Kind of experiment: Average weight change after administration at 0.8 mg/kg intraperitoneally in mice on day 1. In kind it is functional, Mus musculus. The settings on record: route intraperitoneal.
For experiment [32], the system named is L1210. The experiment can be described thus: Average weight change after administration at 1.6 mg/kg intraperitoneally in mice on day 1. It is filed as functional, Mus musculus. Conditions: route intraperitoneal.
The test system of experiment [33] is L1210. Kind of experiment: Average weight change after administration at 12.8 mg/kg intraperitoneally in mice on day 1. The settings on record: route intraperitoneal. In kind it is functional, Mus musculus.
Experiment [34] deals with L1210. Kind of experiment: Average weight change after administration at 3.2 mg/kg intraperitoneally in mice on day 1. It is filed as functional, Mus musculus. The settings on record: route intraperitoneal.
The test system of experiment [35] is L1210. Kind of experiment: Tested for survivors on day 5 after administration at 3.2 mg/kg intraperitoneally in mice on day 1. It is filed as functional, Mus musculus. The settings on record: route intraperitoneal.
The test system of experiment [36] is L1210. Kind of experiment: Tested for survivors on day 5 after administration at 0.4 mg/kg intraperitoneally in mice on day 1. It is filed as functional, Mus musculus. Conditions: route intraperitoneal.
Experiment [37] has as its system L1210. Kind of experiment: Tested for survivors on day 5 after administration at 0.8 mg/kg intraperitoneally in mice on day 1. It is filed as functional, Mus musculus. The settings on record: route intraperitoneal.
The subject of experiment [38] is L1210. Kind of experiment: Tested for survivors on day 5 after administration at 1.6 mg/kg intraperitoneally in mice on day 1. The settings on record: route intraperitoneal. In kind it is functional, Mus musculus.
Experiment [39] deals with L1210. The experiment can be described thus: Tested for survivors on day 5 after administration at 12.8 mg/kg intraperitoneally in mice on day 1. It is filed as functional, Mus musculus. Conditions: route intraperitoneal.
The test system of experiment [40] is L1210. The experiment can be described thus: Median survival time of treated to that of control after administration at 6.4 mg/kg intraperitoneally in BDF1 mice on day 1. It is filed as functional, Mus musculus. The settings on record: route intraperitoneal.

As to `CC(=O)[C@]1(O)Cc2c(O)c3c(c(O)c2[C@@H](O[C@H]2C[C@H](O)[C@H](O)[C@H](C)O2)C1)C(=O)c1c(O)cccc1C3=O`, the Inhibition zone in the experiment with Bacillus subtilis [1] came out at 21.3 mm; with Bacillus subtilis [2] it was 21.5 mm; in the experiment on Bacillus subtilis [3] it was 17.2 mm; with Bacillus subtilis [4], 21.5 mm; with Bacillus subtilis [5] it was 19.5 mm. Also, the Average weight change is recorded as -0.8 in the experiment on L1210 [6]; 1.2 in the experiment on L1210 [7]; -0.6 with L1210 [8]; -0.4 in the experiment on L1210 [9]; 0.3 with L1210 [10]; -1.2 in the experiment with L1210 [11]. Besides, the Average weight change was -0.9 in the experiment with L1210 [12]; 0.2 in the experiment on L1210 [13]; -1.9 with L1210 [14]; -1.1 with L1210 [15]; 0.7 with L1210 [16]; 0.6 in the experiment with L1210 [17]. Besides, the Average weight change is 2.3 with L1210 [18]; 0.6 with L1210 [19]; -1.6 in the experiment with L1210 [20]; -0.3 in the experiment with L1210 [21]; 2.4 with L1210 [22]; -0.8 in the experiment with L1210 [23].
Broadly, the T/C is the result in the treated group divided by that in the control group, in per cent. Turning to `C/C(=N\NC(=O)c1ccccc1)[C@]1(O)Cc2c(O)c3c(c(O)c2[C@@H](O[C@H]2C[C@H](O)[C@H](O)[C@H](C)O2)C1)C(=O)c1c(O)cccc1C3=O`, the Inhibition zone was 12.8 mm in the experiment on Bacillus subtilis [1], 13.8 mm in the experiment with Bacillus subtilis [2], 15 mm in the experiment with Bacillus subtilis [4] and 10.3 mm in the experiment on Bacillus subtilis [5]. The T/C in the experiment on L1210 [24] stood at 100%; with L1210 [25], 93%; in the experiment on L1210 [26], 100%; in the experiment on L1210 [28], 114%; in the experiment on L1210 [29] it was 93%; in the experiment on L1210 [40], 107%. The Survivors with L1210 [27], in the experiment on L1210 [35], with L1210 [36], in the experiment on L1210 [37], with L1210 [38] and in the experiment on L1210 [39] was 6 in each case. Further, the Average weight change with L1210 [30] is 2.3; in the experiment with L1210 [31] it was 1.5; with L1210 [32], 2; in the experiment with L1210 [33], -0.3; in the experiment with L1210 [34], 1.9.
